Reference: patent US9107959B2, “Method for site-specific polyvalent display on polymers” (priority 2006, dated 2015)

Experiment: Cyclic voltammetry (electrochemical analyses)
Type: physicochemical
Conditions: 0.5 mM in water, NaCl 50 mM
Procedure: Ethynylferrocene (1.05 mg, 5.0 μmol) was dissolved in 10 mL HPLC grade water. NaCl (29.22 mg, 0.5 mmol) was added to the solution as a supporting electrolyte. Similarly, solutions of 10 mL water, 6.3 mg (5.0 μmol) peptoid 13 or 4.8 mg (5.0 μmol) peptoid 14 and 29.22 mg (0.5 mmol) NaCl were prepared. The following techniques were performed identically on 0.5 mM ethynylferrocene (50 mM NaCl), 0.5 mM 13 (50 mM NaCl) or 0.5 mM 14 (50 mM NaCl). Approximately 4 mL of solution was transferred to an electrochemical cell and subjected to cyclic voltammetry (CV) experiments. Cyclic voltammetry was conducted using a CH Instruments 600A Electrochemical Analyzer and CV curves were generated using software developed by CH Instruments. Current (μA) versus Potential (V) was measured across a freshly polished CHI104 3 mm diameter glassy carbon disk working electrode (CH Instruments) with a Ag/AgCl (3 M KCl) reference electrode (CH Instruments) and a Pt wire […] (scan rate=9.0 mV s^−1).
To test the effect of triazole conjugation on ferrocene redox properties, compound 13 was purified to >96% as determined by RP-HPLC and the electrochemical behavior of ethynylferrocene and 13 were compared using cyclic voltammetry (CV). Additionally, the influence of the estradiol group on the redox potential of the neighboring ferrocene moiety was evaluated by comparing the electrochemical characteristics of 13 with its azido-functionalized precursor 14. CV experiments were carried out at room temperature using previously described methods (Casas-Solvas et al., Org. Lett. 2004, 6, 3687). CV was performed on solutions of ethynylferrocene (0.5 mM), 13 (0.5 mM) or 14 (0.5 mM) prepared in water with NaCl (50 mM) as a supporting electrolyte, using a Ag/AgCl (KCl 3 M) reference electrode, a freshly polished glassy carbon working electrode, and a Pt wire counter electrode with a scan rate of 9.0 mV s^−1. The values of the formal redox potential)(E^o) and the half-peak potential (Ep/2) of ethynylferrocene, 13 and 14 are shown in Table 1. […]

[1] = glassy carbon working electrode, Ag/AgCl reference, scan rate 9.0 mV s^-1

Q: Which results are given for Ethynylferrocene?
A: Redox behaviour in cyclic voltammograms (ferrocene/ferrocenium) (FIG. 5): reversible redox couples; Ep/2 (half-peak potential) [1]: 0.525 V; E° (formal redox potential) [1]: 0.512 V
